8 compounds from PubChem BioAssay (NCI) can be followed below.

Structures are written as SMILES.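 Assay format: 96-well plates, 48-hour exposure. GI50 is the concentration that inhibits growth by half. TGI: concentration producing complete growth inhibition.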 Bounds are passed on as bounds.

Among the test systems are DU-145 prostate; HCC-2998 colon; OVCAR-4 ovarian; A549 NSCLC; SK-MEL-28 melanoma; K-562 leukemia; HS 578T breast; TK-10 renal; PC-3 prostate; A498 renal.
Common to all, as to assay: inhibition of tumour cell growth, NCI panel, 48 h

Turning to `CC[C@H](C)[C@H](NC(=O)c1ncccn1)C(=O)N(C)[C@H](C[C@@H](OC(C)=O)c1nc(C(=O)N[C@@H](Cc2ccccc2)C[C@H](C)C(=O)OC)cs1)C(C)C`, the GI50 is 1.78 µM with DU-145 prostate; 6.48 µM in the assay on HCC-2998 colon; 4.42 µM with OVCAR-4 ovarian; 6.23 µM in the assay on A549 NSCLC; 3.51 µM in the assay with SK-MEL-28 melanoma; 0.935 µM in the assay with K-562 leukemia. The GI50 is 1.25 µM in the assay on HS 578T breast, 16.6 µM in the assay with TK-10 renal, 1.46 µM in the assay with PC-3 prostate and 2.7 µM in the assay with A498 renal. The TGI in the assay on DU-145 prostate, in the assay with HCC-2998 colon, in the assay on OVCAR-4 ovarian, in the assay on A549 NSCLC, in the assay with SK-MEL-28 melanoma and in the assay on K-562 leukemia was over 25 µM throughout. Moreover, the TGI with HS 578T breast is over 25 µM; in the assay with TK-10 renal it was over 25 µM; with PC-3 prostate, over 25 µM; in the assay on A498 renal, 17.6 µM.
Consider `CCC(CO)Nc1nc(NCc2ccccc2)c2n[nH]c(C(C)C)c2n1` (configuration not stated), for which the GI50 in the assay with DU-145 prostate was 3.73 µM; in the assay with HCC-2998 colon it was 12.6 µM; in the assay with OVCAR-4 ovarian, 6.81 µM; in the assay on A549 NSCLC, 12 µM; in the assay with SK-MEL-28 melanoma, 10.5 µM; in the assay on K-562 leukemia it was 5.96 µM. The GI50 with HS 578T breast was 11.6 µM; in the assay on TK-10 renal, 13.7 µM; in the assay with PC-3 prostate it was 7.01 µM; with A498 renal, 11.6 µM. Moreover, the TGI in the assay on DU-145 prostate is 16.6 µM; in the assay on HCC-2998 colon, 26 µM; in the assay on OVCAR-4 ovarian, 25.6 µM; in the assay with A549 NSCLC it was 46.4 µM; with SK-MEL-28 melanoma, 27.7 µM; in the assay on K-562 leukemia it was 34.4 µM. Further, the TGI in the assay on HS 578T breast was found to be 34.3 µM; with TK-10 renal it was 33.1 µM; in the assay with PC-3 prostate, 31.5 µM; in the assay on A498 renal, 24.4 µM.
Consider `O=C(Nc1ccc(Cl)cc1)c1cc(NCc2cc(O)ccc2O)ccc1O`, for which the GI50 was 13.2 µM in the assay on DU-145 prostate; 7.7 µM with HCC-2998 colon; 2.9 µM in the assay with OVCAR-4 ovarian; 18.4 µM in the assay on A549 NSCLC; 10.1 µM in the assay with SK-MEL-28 melanoma; 2.65 µM in the assay with K-562 leukemia. In addition, the GI50 in the assay on HS 578T breast was 9.12 µM; in the assay on TK-10 renal it was 11.1 µM; in the assay on PC-3 prostate it was 1.89 µM; with A498 renal, 17.1 µM. Besides, the TGI with DU-145 prostate was 26.9 µM; with HCC-2998 colon, 21.4 µM; with OVCAR-4 ovarian, over 100 µM; in the assay on A549 NSCLC, 44 µM; in the assay with SK-MEL-28 melanoma it was 22.4 µM; in the assay with K-562 leukemia, 8.53 µM. Besides, the TGI in the assay on HS 578T breast worked out at 55.7 µM; in the assay on TK-10 renal, 23.6 µM; with PC-3 prostate, 4.92 µM; with A498 renal, 47.1 µM.
For `N#Cc1c(N)c(C(=O)c2ccc3c(c2)OCCO3)n2c1CCCC2`, the GI50 is 4.45 µM in the assay with DU-145 prostate; 4.1 µM with HCC-2998 colon; over 69.1 µM in the assay on OVCAR-4 ovarian; 4.27 µM in the assay on A549 NSCLC; 4.5 µM in the assay with SK-MEL-28 melanoma; 0.638 µM with K-562 leukemia. Besides, the GI50 is 3.08 µM in the assay on HS 578T breast, over 28.5 µM with TK-10 renal, 4.32 µM in the assay with PC-3 prostate and 1.79 µM with A498 renal. In addition, the TGI in the assay with DU-145 prostate was over 100 µM; with HCC-2998 colon, over 93.1 µM; in the assay with OVCAR-4 ovarian, over 100 µM; with A549 NSCLC, over 100 µM; in the assay with SK-MEL-28 melanoma, over 100 µM; in the assay on K-562 leukemia, over 100 µM. In addition, the TGI in the assay with HS 578T breast is over 74.9 µM; in the assay with TK-10 renal it was over 100 µM; in the assay with PC-3 prostate, over 100 µM; in the assay with A498 renal, 8.03 µM.
Regarding `C=C[C@@H]1CCC/C=C/[C@@H]2C[C@H](O)C[C@H]2[C@H](O)/C=C/C(=O)O1`, the GI50 in the assay with DU-145 prostate was 3.82 µM; in the assay on HCC-2998 colon it was 0.409 µM; with OVCAR-4 ovarian it was 0.407 µM; in the assay on A549 NSCLC, 0.469 µM; in the assay on SK-MEL-28 melanoma, 0.34 µM; in the assay with K-562 leukemia it was 3.18 µM. Moreover, the GI50 was 0.477 µM in the assay with HS 578T breast, 0.554 µM with TK-10 renal, 0.785 µM in the assay with PC-3 prostate and 0.261 µM in the assay with A498 renal. Besides, the TGI was over 100 µM in the assay with DU-145 prostate; 2.92 µM with HCC-2998 colon; over 94.6 µM with OVCAR-4 ovarian; over 100 µM with A549 NSCLC; 1.2 µM in the assay on SK-MEL-28 melanoma; over 100 µM with K-562 leukemia. In addition, the TGI is over 100 µM in the assay on HS 578T breast, 19.8 µM in the assay with TK-10 renal, over 100 µM in the assay with PC-3 prostate and 0.763 µM in the assay with A498 renal.
With `Oc1cccc2ccc(SSc3ccc4cccc(O)c4n3)nc12`, the TGI in the assay with DU-145 prostate is over 100 µM; in the assay on HCC-2998 colon, 21.3 µM; in the assay on OVCAR-4 ovarian it was 34.2 µM; with A549 NSCLC, over 100 µM; in the assay on SK-MEL-28 melanoma it was 41.3 µM; in the assay on K-562 leukemia, over 100 µM. For the same compound, the TGI with HS 578T breast was over 100 µM; in the assay with TK-10 renal, 41.3 µM; in the assay with PC-3 prostate, 29.9 µM; in the assay with A498 renal it was 77.4 µM.
As to `Cn1cnc(SC2=CC(=O)C=C3S[C@H]4C[C@@]23c2c(c(O)c3c5c2=NCCC=5C=N3)N4)c1CC(N)C(=O)O` (some centres not stated), the TGI is 32 µM in the assay on DU-145 prostate; 26.6 µM with HCC-2998 colon; 26.2 µM in the assay with OVCAR-4 ovarian; 30.2 µM in the assay with A549 NSCLC; 30.4 µM in the assay on SK-MEL-28 melanoma; over 87 µM in the assay on K-562 leukemia. Moreover, the TGI with HS 578T breast is 96.1 µM; in the assay with TK-10 renal, 36.9 µM; with PC-3 prostate, 51.8 µM; in the assay on A498 renal, 32.7 µM. In addition, the GI50 was 13.6 µM with HCC-2998 colon; 13.4 µM with OVCAR-4 ovarian; 16.2 µM with SK-MEL-28 melanoma; 39.7 µM in the assay with HS 578T breast; 18 µM in the assay on TK-10 renal; 13.4 µM in the assay on PC-3 prostate. Moreover, the GI50 with A498 renal was 18.1 µM.
For `CCOc1ccc(Nc2ccnc3cc(Cl)ccc23)cc1`, the GI50 with DU-145 prostate is over 100 µM; with HCC-2998 colon, over 100 µM; with OVCAR-4 ovarian, 78.3 µM; with A549 NSCLC, over 100 µM; in the assay with SK-MEL-28 melanoma, over 100 µM; in the assay with K-562 leukemia, 32.3 µM. In addition, the GI50 is 38.6 µM with HS 578T breast, over 100 µM with TK-10 renal, over 100 µM with PC-3 prostate and 2.61 µM in the assay on A498 renal. For the same compound, the TGI with DU-145 prostate, in the assay on HCC-2998 colon, with OVCAR-4 ovarian, with A549 NSCLC, with SK-MEL-28 melanoma and with K-562 leukemia was over 100 µM throughout. The TGI with HS 578T breast, in the assay on TK-10 renal, with PC-3 prostate and in the assay with A498 renal was over 100 µM throughout.
